Test [1] has as its target T1, ADAMTS4 in the aneurysmal aortic wall of ApoE−/− mice (Mus musculus, UniProt Q8BNJ2).
T1 construct: from tissue
T1 sequence (Q8BNJ2 209-833): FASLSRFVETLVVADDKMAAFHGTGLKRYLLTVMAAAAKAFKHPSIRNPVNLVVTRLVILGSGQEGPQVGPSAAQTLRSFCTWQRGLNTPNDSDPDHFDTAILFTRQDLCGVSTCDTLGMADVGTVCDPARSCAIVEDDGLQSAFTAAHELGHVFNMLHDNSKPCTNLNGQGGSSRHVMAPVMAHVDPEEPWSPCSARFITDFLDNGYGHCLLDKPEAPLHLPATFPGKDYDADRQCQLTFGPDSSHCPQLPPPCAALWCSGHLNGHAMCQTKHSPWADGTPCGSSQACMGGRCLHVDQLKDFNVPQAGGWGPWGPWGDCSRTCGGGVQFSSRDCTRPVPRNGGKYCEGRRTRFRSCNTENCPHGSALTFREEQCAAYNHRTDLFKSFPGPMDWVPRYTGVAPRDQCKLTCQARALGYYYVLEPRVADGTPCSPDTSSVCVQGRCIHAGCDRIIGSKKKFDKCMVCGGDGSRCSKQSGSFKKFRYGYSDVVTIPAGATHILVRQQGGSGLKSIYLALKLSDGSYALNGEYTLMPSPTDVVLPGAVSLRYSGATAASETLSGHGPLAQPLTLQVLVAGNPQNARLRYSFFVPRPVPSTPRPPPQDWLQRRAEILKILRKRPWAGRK
Description: In vivo competition experiment. As to the method: An in vivo competition experiment was performed in 3 ApoE^−/− mice (n = 3) 4 weeks after AAA induction. On day 1, MR imaging was performed prior to and following the intravenous administration of the ADAMTS4-specific probe. On day 2, MRI was performed prior to and after the injection of a 7-fold higher dose of the non-paramagnetic europium-labeled ADAMTS4-specific probe. Then, a clinical dose of the ADAMST4 specific probe (0.13 mmol/kg) was administered with the following imaging after 20 min.
Analysis of resulting MR images was performed using OsiriX (version 7.1, OsiriX Foundation, Bernex, Switzerland). All morphometric measurements were conducted on high-resolution MRI images. In order to assess the signal intensities, regions of interest (ROIs) were measured as areas of signal enhancement, which were co-localized with areas of aneurysmal-aortic tissue. For these areas, the CNR was calculated using the following formula: CNR = (Combined vessel-wall and aneurysmal-aortic-tissue-signal − blood-signal)/standard-deviation-signal (noise). The signal of noise was defined as the standard deviation in pixel intensity from an ROI placed in the background air anterior to the aorta.

The target in test [2] is T1, ADAMTS4 in the aneurysmal aortic wall of ApoE−/− mice. As to the kind of experiment: In vivo MRI, cross-sectional study (2 and 4 weeks AngII, sham). The following applies: for CNR after administration, individual animals: one line per mouse. As for the experimental part:
All procedures and animal maintenance were performed according to the guidelines and regulations of the Federation of Laboratory Animal Science Associations (FELASA) and the local Guidelines and Provisions for Implementation of the Animal Welfare Act. The animal studies were approved by the local authorities (Lageso Berlin.) Mice were obtained from the Research Institute of Experimental Medicine at the Charité Berlin and maintained under barrier conditions, including a dark/light cycle of 12 h, an ambient temperature of 20 °C, and a humidity of 45%. A standard laboratory diet and water were provided ad libitum. For aneurysm induction, male 8-week-old apolipoprotein-E knockout (ApoE^−/−) (B6.129P2-ApoE^tm1Unc/J) mice underwent implantation of osmotic minipumps (Alzet model 2004, Durect Corp). Osmotic minipumps were implanted subcutaneously in the dorsal neck region and continuously delivered angiotensin II (AngII, Merck KGaA, Darmstadt, Germany) (1000 ng/kg/min) for up to 28 days (n = 32). Sham-operated mice (n = 10) served as the control group, receiving saline for 28 days instead of AngII via the osmotic minipumps.
For the cross-sectional study, MR imaging was performed after two and 4 weeks of AngII-infusion (n = 10 per group). […]
MR imaging was performed using a clinical 3 T Siemens system (Biograph, Siemens Healthcare Solutions, Erlangen, Germany). […] Following anesthesia injection, the animals were positioned in a prone position, and body temperature (37 °C) was monitored using an MR-compatible heating system (Model 1025, SA Instruments Inc, Stony Brook, NY) to avoid rapid cooling. […]
Analysis of resulting MR images was performed using OsiriX (version 7.1, OsiriX Foundation, Bernex, Switzerland). […] In order to assess the signal intensities, regions of interest (ROIs) were measured as areas of signal enhancement, which were co-localized with areas of aneurysmal-aortic tissue. For these areas, the CNR was calculated using the following formula: CNR = (Combined vessel-wall and aneurysmal-aortic-tissue-signal − blood-signal)/standard-deviation-signal (noise). […]

Molecules are shown by their SMILES. Several values for one entry are separate records, joined by “and”; a condition that tells them apart may be missing. Identical values can stand only once. Where a SMILES comes first, the peptide text is derived from it. Bridges are numbered along the chain shown (N, C = ends). The star is where a group is joined. DOTA = O=C(O)CN1CCN(CC(=O)O)CCN(CC(=O)*)CCN(CC(=O)O)CC1

Regarding `N=C(N)NCCC[C@@H]1NC(=O)[C@H](CCCNC(=N)N)NC(=O)[C@H](CO)NC(=O)[C@@H](N)CSSC[C@@H](C(=O)N[C@@H](CO)C(=O)NCC(=O)NCC(=O)N[C@@H](CO)C(=O)NCC(=O)NCC(=O)N[C@@H](CCCCNC(=O)CN2CCN(CC(=O)O)CCN(CC(=O)O)CCN(CC(=O)O)CC2)C(=O)NCC(N)=O)NC(=O)CNC1=O` (Gd complex, metal not drawn) [ADAMTS4-specific probe] (H-CSRRGCSGGSGGK(DOTA)G-NH2; disulfide 1-6), the “CNR d1 post, individual animals” value in test [1] (day 1, Gd-labeled probe alone) was 10.05 and 8.83 and 9.84. The “CNR d2 post, individual animals” value in test [1] (day 2, after 7-fold dose of Eu-labeled probe followed by Gd-labeled probe 0.13 mmol/kg) is 5.81 and 4.92 and 5.19. The “CNR after administration, individual animals” value in test [2] (4 weeks AngII (4w)) was 13.92 and 11.1 and 12.72 and 12.01 and 12.59 and 22.52 and 20.4 and 10.53 and 14.06 and 16.11; in test [2] (sham (s)), 6.04 and 7.8 and 7.62 and 6.96 and 7.76 and 7 and 7.77 and 7.23 and 7.52. Moreover, the “CNR of the mice analysed by ICP-MS (Figure 7a)” value in test [2] (individual mice, n = 7) was 9.44 and 11.51 and 11.44 and 12.92 and 6.96 and 7.76 and 7.00.

Source of the values: publication PMC9126943, “ADAMTS4-specific MR probe to assess aortic aneurysms in vivo using synthetic peptide libraries” (Nature Communications, 2022).
